From patent US20250345345A1, “METHODS FOR THE TREATMENT OF NEUROLOGICAL DISORDERS” (Praxis Precision Medicines, Inc., priority 2022, published 2025)

Key:
[1] = evening versus morning dosing; Khodadoustan et al. 2017; cited from earlier work
[2] = system: PTZ-evoked seizures in CD-1 male mice; assay: PTZ acute seizure model, combination of Compound 1 with Compound A (Example 2); type: in vivo; conditions: 30 minutes before PTZ 120 mg/kg s.c., n=12
Experimental: The combination of Compound 1 with Compound A for the treatment of seizures was investigated using a PTZ acute seizure model. Accordingly, the effect on PTZ-evoked seizures was evaluated for a vehicle control, Compound A alone, Compound 1 alone, and a combination of Compound 1 and Compound A.
Six-week old CD-1 male mice (25-35 g) were used in the following experiment. Study groups (n=12 for each group) were as follows: • (1) 35% 2-hydroxypropyl-beta-cyclodextrin (HPBCD), the vehicle for Compound 1 and Compound A (10 ml/kg, p.o.); • (2) Compound A (1 mg/kg, p.o.); • (3) Compound A (3 mg/kg, p.o.); • (4) Compound A (6 mg/kg, p.o.); • (5) Compound A (10 mg/kg, p.o); • (6) Compound 1 (10 mg/kg, p.o.); and • (7) Compound A (1 mg/kg, p.o.) and Compound 1 (10 mg/kg, p.o.).
In each instance, 30 minutes after administration of the vehicle or compound(s), PTZ was administered at 120 mg/kg, s.c., 10 ml/kg.
Dosing solutions were made from stock solutions of the highest dose and diluted down for the lower doses. All solutions were protected from light and made fresh daily for two experiment days. […]
Latency and total numbers of clonic/tonic seizures were recorded for 30 minutes, and latency to death was also recorded up to 30 minutes. […] The latency and number of seizures for each mouse was recorded by an individual blinded to the treatment. […]

[3] = evening versus morning administration; as disclosed in WO 2022/232104; cited from earlier work

Which “Cmax, evening administration compared to morning dosing” value [1] does the source give for CCOC(=O)C1=C(COCCN)NC(C)=C(C(=O)OC)C1c1ccccc1Cl (stereo not shown) [amlodipine besylate] here?
Its value is “increased”.

And the “Tmax, evening administration compared to morning dosing” value [1]?
The value was “reduced”.

Which “seizure-free mice of the twelve mice” value ([2]; Compound A 1 mg/kg p.o. alone, p<0.01 versus combination) does the source give for CCOC(F)(F)c1nnc2ccc(-c3cnc(OCC(F)(F)F)c(F)c3)cn12 [Compound A] here?
Its value is “none”.

Which “seizure-free mice of the twelve mice” value ([2]; Compound 1 10 mg/kg p.o. alone, n.s. versus combination) does the source give for COC[C@@]1(O)CC[C@@]2(C)[C@@H](CC[C@@H]3[C@@H]2CC[C@]2(C)[C@@H](C(=O)Cn4ccnc4)CC[C@@H]32)C1 [Compound 1, 3α-Hydroxy-3β-methoxymethyl-21-(1′-imidazolyl)-5α-pregnan-20-one] here?
The value was 3.

And the “maximum observed plasma concentration (Cmax), evening compared to morning administration” value [3]?
Its value is “reduces”.

What about the “overall drug exposure (AUCinf), evening compared to morning administration” value [3] of the same compound?
Its value is “similar”.

What about the “time to maximum plasma concentration (tmax), evening compared to morning administration” value [3] of the same compound?
The value was “increases”.
